≈ marks a conversion by molar mass, not a printed value. Residues, ends and D or L forms follow the SMILES beside them.
What was measured:
physchem = assay type: physicochemical; details: water
From the text: (§1) Es wurde nun erkannt, daß das Glutamin als an der α-Aminogruppe durch α-Aminoacylreste substituiertes Derivat, d. h. in Form der Tri- oder Dipeptide des Glutamins dem Organismus, insbesondere durch Infusionslösungen, zugeführt werden kann, ohne Gefahr der Bildung des toxischen Cyclisierungsprodukts. Diese Di- und Tripeptide des Glutamins mit anderen Aminosäuren, wie Glycin, Alanin, Leucin, Isoleucin oder Valin, sind sehr leicht wasserlöslich, so daß sie gegebenenfalls in relativ hoher Konzentration in den Infusionslösungen angewendet werden können, wobei gleichzeitig dem Organismus auch andere Aminosäuren zugeführt werden, ohne daß dadurch osmotische Problem auftreten. Die Löslichkeit beispielsweise des Gly-Ala-Gln beträgt 680 g/L H₂O, während die freien Aminosäuren eine geringere Löslichkeit besitzen: […]: 225 g/L H₂O; Alanin: 158 g/L H₂O und Glutamin: […] H₂O.

Solubility in water = assay type: physicochemical
From the text: as §1

[1] = tested on: Hydrolasen in den Geweben des Organismus; details: in vivo, cited from earlier work

With `C[C@H](N)C(=O)O` [Alanin] the solubility (physchem) was 158 mg/mL (≈ 1770 mM).
For `NC(=O)CC[C@H](N)C(=O)O` [Glutamin], the solubility (physchem) was 325 mg/mL (≈ 2220 mM).
For `C[C@H](NC(=O)CN)C(=O)N[C@@H](CCC(N)=O)C(=O)O` [Gly-Ala-Gln, Glycyl-L-alanyl-L-glutamin] (H-Gly-Ala-Gln-OH), the Löslichkeit (Solubility in water) was 680 g/L H₂O.
Glycerin showed a Löslichkeit (physchem) of 225 g/L H₂O.
In the case of Glycyl-leucin, the “Elimination aus dem Plasma” value ([1]; iv) is listed as “schnell aus dem Plasma eliminiert” and the “Spaltung durch Hydrolasen in den Geweben” value [1] is listed as “gut gespalten”.

— patent publication EP0087750B2, “Amino acid preparations containing glutaminic residues” (Kabi Pharmacia GmbH, priority 1982, dated 1994)
